For five compounds, Ki results are on record in ChEMBL document CHEMBL3407340, “Synthesis, radiolabeling and evaluation of novel 4-oxo-quinoline derivatives as PET tracers for imaging cannabinoid type 2 receptor” (Eur J Med Chem, 2015).

Structures are written as SMILES.

The experiment has as its target Cannabinoid receptor 1 (Homo sapiens, UniProt P21554). Put plainly: Displacement of [3H]-CP-55940 from human CB1 receptor transfected in CHOK1 cells after 90 mins by liquid scintillation counting analysis. Format: cell-based, CHO-K1. (In general: In a radioligand displacement assay an active substance lowers the binding of a labelled ligand.)

Sequence of Cannabinoid receptor 1 (P21554 whole entry): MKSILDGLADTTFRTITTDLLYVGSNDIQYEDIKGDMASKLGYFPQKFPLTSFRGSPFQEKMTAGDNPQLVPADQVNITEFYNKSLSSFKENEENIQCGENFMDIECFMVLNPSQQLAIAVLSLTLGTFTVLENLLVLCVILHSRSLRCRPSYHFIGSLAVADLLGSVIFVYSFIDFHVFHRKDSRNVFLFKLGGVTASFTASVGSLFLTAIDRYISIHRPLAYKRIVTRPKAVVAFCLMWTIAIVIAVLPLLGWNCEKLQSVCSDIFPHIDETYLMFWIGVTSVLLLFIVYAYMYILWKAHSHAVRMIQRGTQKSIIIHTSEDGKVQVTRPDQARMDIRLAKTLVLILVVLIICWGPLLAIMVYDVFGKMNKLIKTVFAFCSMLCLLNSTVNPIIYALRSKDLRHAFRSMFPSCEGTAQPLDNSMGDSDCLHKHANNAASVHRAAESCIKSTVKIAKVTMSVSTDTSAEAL

Turning to `CCCCn1cc(C(=O)NCC2CC2)c(=O)c2cccc(OC)c21`, the Ki (in general, the dissociation constant of the complex between target and ligand, obtained from inhibition or displacement) is above 10 µM.

`CCOCCn1cc(C(=O)NCCc2ccccc2)c(=O)c2cccc(OC)c21`: the Ki is above 10 µM.

Compound `CCCCn1cc(C(=O)NC2CCCC2)c(=O)c2cccc(OC)c21` yielded an inhibitory constant (Ki) above 10 µM. `CCOCCn1cc(C(=O)NC23CC4CC(CC(O)(C4)C2)C3)c(=O)c2cccc(OC)c21` gave a Ki above 10 µM. On to `CCCCCn1cc(C(=O)NC23CC4CC(CC(C4)C2)C3)c(=O)c2cccc(OC)c21`, for which the Ki is above 10 µM.
